# Test results from article PMC12621175, “Scaffold Fusion and SAR Transfer with a Chemical Language Model Generates Novel Liver X Receptor Modulators” (Journal of Medicinal Chemistry, 2025).
# Entries after “also recorded” stand apart in the source; their conditions may differ.
# How the values were obtained:
# [1] = metabolic stability assay in rat liver microsomes; type: in vitro ADME; conditions: 10 μM
# Procedure: The dissolved test compound (5 μL, final concentration 10 μM) was preincubated at 37 °C in 432 μL of phosphate buffer (0.1 M, pH 7.4) together with a 50 μL NADPH regenerating system (30 mM glucose-6-phosphate, 4 U/mL glucose-6-phosphate dehydrogenase, 10 mM NADP, and 30 mM MgCl2). After 5 min, the reaction was started by the addition of 13 μL of microsome mix from the liver of Sprague–Dawley rats (Invitrogen; 20 mg protein/mL in 0.1 M phosphate buffer) in a shaking water bath at 37 °C. The reaction was stopped by the addition of 500 μL of ice-cold methanol at 0, 15, 30, and 60 min. The samples were centrifuged at 5000 g for 5 min at 4 °C. The supernatants were analyzed, and the test compound was quantified by HPLC: The composition of the mobile phase is adapted tot the test compound in a range of 40-90% acetonitrile and 10-60% water (0.1% formic acid); flow rate: 1 mL/min; stationary phase: PurospherⓇ STAR, RP18, 5 μm, 125 × 4, precolumn: PurospherⓇ STAR, RP18, 5 μm, 4 × 4; detection wavelength: 254 and 280 nm; injection volume: 50 μL. […] The amounts of the test compound were quantified by an external calibration curve. Data are expressed as the mean ± SEM remaining compound from three independent experiments.
# SREBP1c = experiment: qPCR of LXR-regulated mRNA expression in HepG2: SREBP1c; type: cell-based, human; conditions: HepG2, 24 h
# LXRα = molecular target: T1, LXRα (Homo sapiens, UniProt Q13133); experiment: Gal4-LXRα hybrid reporter gene assay; type: cell-based; conditions: for classification: applies to LXRa and LXRb; for LXR modulation in Gal4 hybrid reporter gene assays (mode of action): both LXR subtypes (LXRα and LXRβ)
# T1 construct: coding for the hinge region, and LBD of the canonical isoform of the respective nuclear receptor; expressed in transfected cells; host or cells: HEK293T
# T1 sequence (Q13133 209-447 limits assumed): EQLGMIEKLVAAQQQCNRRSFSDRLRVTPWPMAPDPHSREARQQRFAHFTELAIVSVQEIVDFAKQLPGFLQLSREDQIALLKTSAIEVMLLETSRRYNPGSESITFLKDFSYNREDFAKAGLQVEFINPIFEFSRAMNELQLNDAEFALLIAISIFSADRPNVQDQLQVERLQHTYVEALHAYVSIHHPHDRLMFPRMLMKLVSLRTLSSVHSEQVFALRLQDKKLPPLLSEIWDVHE
# Procedure: The LXR-responsive reporter ABCA1-pGL3 was used for the full-length reporter gene assay.
# The day before transfection, HEK293T cells were seeded in 96-well plates (4 × 10^4 cells/well). Before transfection, the medium was changed to Opti-MEM without any supplements. Transient transfection was carried out using Lipofectamine LTX reagent (Invitrogen) according to the manufacturer’s protocol with (a) pFR-Luc (Stratagene), pRL-SV40 (Promega), and the corresponding Gal4-fusion nuclear receptor plasmid or (b) the LXR-responsive reporter ABCA1-pGL3 and pRL-SV40 (Promega). […] Each concentration was tested in duplicate, and each experiment was repeated in at least three biologically independent repeats. […] Luminescence was measured with a Spark 10 M luminometer (Tecan Deutschland GmbH). Normalization of transfection efficiency and cell growth was done by division of firefly luciferase data by renilla luciferase data multiplied by 1000, resulting in relative light units (RLU). Fold activation was obtained by dividing the mean RLU of the tested compound at a respective concentration by the mean RLU of the untreated 0.1% DMSO control. […] Separate control experiments to exclude nonspecific reporter gene activation or VP16-mediated effects were performed following the same procedure in the absence of a nuclear receptor expression plasmid (pFR-Luc, pRL-SV40, and pECE-SV40-Gal4-VP16 only).
# HepG2 cells = experiment: lipid accumulation assay (Oil Red O staining); type: cell-based; conditions: 72 h
# Procedure: HepG2 cells were seeded in collagen-coated 96-well plates at a density of 10^4 cells per well and incubated for 24 h. For the lipolytic mode, the cells were pretreated for additional 24 h with 66.7 μM oleic acid and 33.3 μM palmitic acid in culture medium with 1% bovine serum albumin (BSA). The cells were then treated with DMSO (0.1%) alone or in combination with test compounds in the culture medium. After 72 h, the cells were washed with PBS (2 × 50 μL) and fixed with 10% formalin solution (50 μL) for 15 min. After removal of the fixative, the cells were washed with H2O (2 × 50 μL), followed by 50 μL of 60% iPrOH and incubated with 50 μL Oil Red O solution (0.3% in 60% iPrOH) for 10 min to stain neutral lipids. The cells were washed quickly with 50 μL of 60% iPrOH and 2 × 50 μL of PBS. Microscopic images were taken using a 40x objective on a BZ-X810 microscope (KEYENCE, Frankfurt, Germany). Images were analyzed using ImageJ software (v1.54) according to a literature method.
SMILES,metabolic stability [1] [min],SREBP1c mRNA expression (SREBP1c; 3 μM),classification (LXRα),LXR modulation in Gal4 hybrid reporter gene assays (mode of action) (LXRα),"EC50 (LXRα; classification agonist, read-out: LXRa pEC50/pIC50 (converted)) [µM]","lipid accumulation (lipogenesis) (HepG2 cells; 10 μM, compared to T0901317 10 μM)",SREBP1c mRNA expression (SREBP1c; 30 μM),"mrna remaining at 30 µM (SREBP1c; Homo sapiens, 30 μM) [%]",IC50 (LXRα) [µM],effect on T0901317-induced lipogenesis (HepG2 cells; 30 μM with T0901317 10 μM),lipid accumulation (lipogenesis) (HepG2 cells; 30 μM)
"CCN(C(=O)c1ccccc1)c1ccc(C(O)(C(F)(F)F)C(F)(F)F)cc1 [Compound 1, N-Ethyl-N-(4-[1,1,1,3,3,3-hexafluoro-2-hydroxypropan-2-yl]phenyl)benzamide]",> 60,induced,agonist,partial agonists,0.562,formation of less lipids in HepG2 cells than the structurally related full agonist T0901317; also recorded: induced lipogenesis after 72 h less efficiently,,,,,
"CS(=O)(=O)c1cccc(-c2ccc(CN(Cc3cccc(C(F)(F)F)c3Cl)CC(c3ccccc3)c3ccccc3)cc2)c1 [Compound 3, N-(2-Chloro-3-[trifluoromethyl]benzyl)-N-([3′-{methylsulfonyl}-{1,1′-biphenyl}-4-yl]methyl)-2,2-diphenylethan-1-amine]",> 60,,antagonist,did not activate LXRs but suppressed LXR activation by the reference agonist T0901317,,,repressed SREBP1c expression; also recorded: robustly suppressed SREBP1c,10,7.59,significantly attenuated T0901317-induced lipogenesis; also recorded: mitigated T090-induced steatosis,did not induce lipid accumulation; also recorded: did not stimulate lipid accumulation
